Experimental data from PubChem BioAssay (NCI).
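Cultured in 96-well plates, cells were exposed to test compound for 48 hours across five concentrations. GI50: concentration for 50% inhibition of growth. Definition used: TGI = concentration required for complete inhibition of growth.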

Key:
Assay in all cases: NCI tumour cell line growth inhibition, 48 h
SK-MEL-5 melanoma = test system: SK-MEL-5 melanoma
UACC-62 melanoma = test system: UACC-62 melanoma
HL-60(TB) leukemia = test system: HL-60(TB) leukemia
DU-145 prostate = test system: DU-145 prostate
SK-MEL-2 melanoma = test system: SK-MEL-2 melanoma
OVCAR-5 ovarian = test system: OVCAR-5 ovarian
NCI-H522 lung = test system: NCI-H522 lung
MDA-MB-231 breast = test system: MDA-MB-231 breast
NCI-H460 lung = test system: NCI-H460 lung
MDA-MB-435 = test system: MDA-MB-435

Row | Compound | GI50 (SK-MEL-5 melanoma) | TGI (SK-MEL-5 melanoma) | GI50 (UACC-62 melanoma) | TGI (UACC-62 melanoma) | GI50 (HL-60(TB) leukemia) | TGI (HL-60(TB) leukemia) | GI50 (DU-145 prostate) | TGI (DU-145 prostate) | GI50 (SK-MEL-2 melanoma) | TGI (SK-MEL-2 melanoma) | GI50 (OVCAR-5 ovarian) | TGI (OVCAR-5 ovarian) | GI50 (NCI-H522 lung) | TGI (NCI-H522 lung) | GI50 (MDA-MB-231 breast) | TGI (MDA-MB-231 breast) | GI50 (NCI-H460 lung) | TGI (NCI-H460 lung) | GI50 (MDA-MB-435) | TGI (MDA-MB-435)
1 | Cn1c2ccccc2c2c(-c3ccccc3)[n+]3ccncc3nc21 | 37.2 µM | > 100 µM | > 100 µM | > 100 µM | > 100 µM | > 100 µM | > 100 µM | > 100 µM | 55 µM | > 100 µM | > 100 µM | > 100 µM | 48 µM | > 100 µM | > 100 µM | > 100 µM | > 100 µM | > 100 µM | 94.3 µM | > 100 µM
2 | O=C1CCCCN1CCCCC#Cc1ccccc1C#Cc1ccc([N+](=O)[O-])cc1 | 1.75 µM | 3.88 µM | 5.77 µM | 20.3 µM | 1.75 µM | 6.64 µM | 17.5 µM | 36 µM | 3.65 µM | 16.7 µM | 5.25 µM | 18.7 µM | 12.3 µM | 59.5 µM | 12.8 µM | 51.4 µM | 2 µM | 4.35 µM | 1.68 µM | 4.83 µM
3 | NC(=O)c1ccc(I)c(N)c1 | > 100 µM | > 100 µM | > 100 µM | > 100 µM | > 100 µM | > 100 µM | > 100 µM | > 100 µM | > 100 µM | > 100 µM | > 100 µM | > 100 µM | > 100 µM | > 100 µM | > 100 µM | > 100 µM | > 100 µM | > 100 µM | > 100 µM | > 100 µM
4 | COc1ccc(NC2=CC(=O)C(=O)c3ccccc32)nn1 | – | 2 µM | – | 3.01 µM | – | 0.898 µM | – | 3.19 µM | – | 4.32 µM | – | 3.45 µM | – | 2.16 µM | – | 34.8 µM | – | 3.49 µM | – | 1.32 µM
5 | Nc1cc(N)c2nc(-c3ccccc3)c(Nc3ccc(Cl)c(Cl)c3)nc2c1 | 11 µM | 25.5 µM | 13.1 µM | 29.9 µM | 2.59 µM | 71.7 µM | 16.7 µM | 32.6 µM | 2.32 µM | 19.1 µM | 28 µM | 48.7 µM | 5.3 µM | 21.7 µM | 5.72 µM | 27.8 µM | 8.27 µM | 22.9 µM | 2.16 µM | 4.59 µM
6 | O=C(N/N=C/c1ccccc1O)c1ccccc1Nc1ccnc(C(F)(F)F)c1 | 0.432 µM | 5.53 µM | 0.365 µM | 7 µM | 0.293 µM | 1.69 µM | 0.478 µM | > 48.7 µM | 3.61 µM | > 60.5 µM | 4.34 µM | > 92.3 µM | 5.74 µM | > 58.9 µM | 0.796 µM | > 95.4 µM | 0.255 µM | 11.2 µM | 1.37 µM | > 100 µM
7 | C=CC(=O)N1CC2(CCN(c3nc(OC4CCN(CCCOC)CC4)nc4c(OCC(F)(F)F)c(-c5c(C)ccc6[nH]ncc56)c(C5CC5)cc34)CC2)C1 | 2.14 µM | 4.93 µM | 5.27 µM | 18.9 µM | 1.76 µM | 4.57 µM | 2.9 µM | 9.12 µM | 2.19 µM | 4.77 µM | 5.31 µM | 18 µM | 1.78 µM | 3.57 µM | 1.98 µM | 3.94 µM | 2.09 µM | 4.4 µM | 1.85 µM | 4 µM
8 | Oc1ccc(NCc2nc3ccccc3[nH]2)cc1 | 72.4 µM | > 100 µM | 70.5 µM | > 100 µM | > 100 µM | > 100 µM | 75.9 µM | > 100 µM | 22.8 µM | 98.8 µM | > 100 µM | > 100 µM | 27.7 µM | > 100 µM | 38.4 µM | > 100 µM | 41.9 µM | > 100 µM | > 100 µM | > 100 µM
9 | COc1ccc(/C=C/c2nccc3ccccc23)cc1OC | – | > 10 µM | – | > 10 µM | – | > 10 µM | – | > 10 µM | – | > 10 µM | – | > 10 µM | – | > 10 µM | – | > 10 µM | – | > 10 µM | – | > 10 µM
10 | O=C1c2cc(Cl)ccc2S(=O)(=O)c2c(NCCCNCCO)nc3ccccc3c21 | 2.5 µM | 6.48 µM | 1.61 µM | 3.35 µM | 2.1 µM | 6.79 µM | 1.25 µM | 2.52 µM | 1.93 µM | 4.74 µM | 1.65 µM | 3.32 µM | 0.323 µM | 1.42 µM | 1.49 µM | 2.94 µM | 2.02 µM | 4.73 µM | 1.5 µM | 3.13 µM
11 | OCc1c[nH]c2ccccc12 | 14.4 µM | 30.1 µM | 15.3 µM | 35.8 µM | 35.1 µM | 77.3 µM | 28.7 µM | 77.4 µM | 17.4 µM | 32.8 µM | 20.8 µM | 58.6 µM | 16.7 µM | 37.1 µM | 14.7 µM | 47.7 µM | 21 µM | 45.4 µM | 19.8 µM | 48.2 µM
12 | CCOc1cc2c(Cl)ncnc2c(OCC)c1OCC | 3.8 µM | 12.1 µM | 6.99 µM | 20.2 µM | 2.35 µM | 15.5 µM | 1.75 µM | 3.14 µM | 3.61 µM | 10.3 µM | 17.9 µM | 33.4 µM | 9.67 µM | 23.5 µM | 11.9 µM | 24.9 µM | 5.21 µM | 17.7 µM | 6.06 µM | 21.2 µM
13 | C[C@@H]1OC(O)[C@@H](F)[C@H](O)[C@@H]1O (stereo not given in full) | > 100 µM | > 100 µM | > 100 µM | > 100 µM | > 100 µM | > 100 µM | > 100 µM | > 100 µM | > 100 µM | > 100 µM | > 100 µM | > 100 µM | > 100 µM | > 100 µM | > 100 µM | > 100 µM | > 100 µM | > 100 µM | > 100 µM | > 100 µM
